Tests used:
Assay type in all cases: in vivo, rat
[1] = system: rats with chronic constriction injury (CCI) to sciatic nerve; experiment: Intrathecal application in CCI rats, behavioural reflex testing (PWL, PWT); conditions: for effect on contralateral responses / reversal of mechanical reflex sensitisation ipsilateral to CCI / reversal of thermal reflex sensitisation ipsilateral to CCI: 2R,4R-APDC 15 nmol, ACPT-III and AP-4 150 nmol each; for reversal of mechanical reflex sensitisation ipsilateral to CCI / reversal of thermal reflex sensitisation ipsilateral to CCI: 15-30 min post-injection
Procedure: (§1) Pain models were generated under halothane anaesthesia (Zeneca, Cheshire, UK). For the chronic constriction injury (CCI) model of neuropathic pain, four ligatures were tied loosely to constrict the sciatic nerve at mid-thigh level (as described previously^[39]). An inflammatory pain model was generated by injecting 100 μl of Complete Freund's Adjuvant (CFA, Sigma-Aldrich Ltd) into the ventral surface of the right hindpaw^[39]. A model of peripheral demyelination-induced pain was produced by focal application of lysolecithin to the sciatic nerve^[40]. Peak behavioural sensitisation was observed post-surgically between days 10-16 for CCI, 1-3 for CFA, and 7-14 for lysolecithin, when pharmacological and electrophysiological experiments and tissue removal were conducted.
(§2) Thermal sensitivity was assessed by measuring paw withdrawal latency (PWL, s) in response to a noxious thermal stimulus (Hargreaves' thermal stimulator, Linton Instrumentation, Diss, UK) directed to the hindpaw mid-plantar glabrous surface. Mechanical sensitivity was recorded as the paw withdrawal threshold (PWT, mN/mm^2) to calibrated von Frey filaments (Stoelting, Ill., US), as previously described^[39]. Sensitivity to noxious cold was assessed by placing animals in a waterbath with an aluminium floor containing 1 cm deep 4° C. water and counting the time the paw was held suspended over a 20 s period.
(§3) The following drugs were applied intrathecally in a 50 μl volume of saline-based vehicle at 37° C.: icilin (2.5-200 μM in saline with 0.2% dimethylformamide, DMF), LY 341495 (100 μM in saline), UBP 1112 (200 μM in saline), 2R,4R-APDC ((2R, 4R)-4-aminopyrrolidine-2,4-dicarboxylate), 300 μM in saline), ACPT-III ((1R,3R,4S)-1-aminocyclopentane-1,3,4-tricarboxylic acid), 3 mM in saline), AP-4, ((L-(1)-2-amino-4-phosphonobutyric acid), 3 mM in saline), naloxone (0.5 mM in saline), NMDA (75 μM in saline) and ACPC (1-aminocyclopropanecarboxylic acid, 15 μM in saline) (Tocris Cookson, Bristol, UK), (−)-menthol (1R,2S,5R-(−)-menthol, 4 mM in saline), cinnamaldehyde (1.5 mM in saline) and Ruthenium Red (5 μM in saline) (Sigma-Aldrich Co. Ltd, UK) and allicin (0.5 mM in saline with 0.5% DMF) and diallyl disulphide (DADS, 1 mM in saline with 0.5% DMF) (LKT Laboratories Inc., St Paul, Minn., USA). Drugs were injected into the L5/6 intrathecal space under brief halothane anaesthesia, using a 25-gauge needle microsyringe (BD Biosciences, Oxford, UK), as described previously^[39] in animals that were at peak levels of behavioural sensitisation. Behavioural reflex testing commenced 15 min following injection to allow recovery from anaesthesia^[40,41,42] and continued every 5 min thereafter until readings returned to baseline levels (n=6 in each case). We, and others^[40,41,42] find complete recovery from anaesthetic by 15 minutes. All appropriate controls were carried out to eliminate the possibility of effects due to vehicle or to injection procedure.
(§4) The TRPM8 channel activators, icilin and (−)-menthol were tested in CCI and naïve animals. The effects of icilin were additionally assessed in animals with CFA-induced inflammation or with lysolecithin-induced demyelination. Icilin was also co-administered with the μ-opioid receptor antagonist naloxone, the Group II metabotropic glutamate receptor (mGluR) antagonist, LY 341495, or the Group III mGluR antagonist, UBP 1112. The effects of these antagonists alone as well as effects of the Group II mGluR agonist, 2R,4R-APDC and the Group III mGluR agonists, ACPT-III and AP-4, were assessed in CCI animals. The TRPA1 channel activator, cinnamaldehyde, alone and with icilin, was tested in CCI animals and in naïve animals. Further TRPA1 channel activators, allicin and diallyl disulphide were assessed in naïve animals. Both icilin and cinnamaldehyde effects in CCI animals were also investigated in the additional presence of Ruthenium Red.

[2] = system: rats with chronic constriction injury (CCI) to sciatic nerve; experiment: Topical application to paws of CCI rats, behavioural reflex testing (thermal PWL, mechanical PWT); conditions: for analgesia, thermal hyperalgesia (Hargreaves' test): 30 μM topical, CCI model; for reversal of sensitised responses: topical, (−)-menthol 4 mM, isomenthol and (+)-menthol 8 mM and 16 mM
Procedure: as §1, §2
Icilin was applied at concentrations of 2.5-500 μM (in water with 0.2% DMF), by placing CCI or naïve rats unrestrained for 5 min in a 1 cm deep waterbath (sufficient to cover paws), which was thermostatically controlled to a temperature of 30° C., or by very lightly anaesthetising rats and immersing hindpaws in small tubes containing 5 ml icilin (500 μM-5 mM, with a vehicle of 45% dimethylformamide in 0.2% aqueous Tween 80) for 5 min, followed by sensory testing for 60-80 mins. The effects of (−)-menthol and its stereoisomers isomenthol (1S,2R,5R-menthol,) and (+)-menthol (1S,2R,5S(+)-menthol) (4-16 mM in 80% ethanol) were also assessed. Relevant vehicles were always assessed in similar experiments. As a contrast, the effect of cinnamaldehyde (1.5 mM in water) and the effect of cinnamaldehyde with additional icilin (80 μM in water with 0.2% DMF) were assessed in naïve animals. The effects of icilin (80 μM) were further assessed in CCI animals that had undergone antisense and mis-sense treatment for knockdown of TRPM8 or immediately following intrathecal injection of either LY 341495 or UBP 1112. […] The effects of brief paw immersion at different temperatures (10-22° C. for 5 min) on CCI rats were assessed by mechanical testing. The effects of intrathecal LY 341495 or UBP 1112 on the reversal of ipsilateral sensitisation in CCI following a 16° C. cool challenge for 5 min were measured. Reflex testing commenced 5 minutes following challenge, unless animals had been anaesthetised, in which case 15 minutes was allowed for recovery. Six replicate animals were tested in all pharmacological experiments.
Antisense and mis-sense oligonucleotides were 22-mers with phosphorothioate bonds at the last two positions at 5′ and 3′ ends (MWG Biotech, Ebersberg, Germany). Antisense extended from base −10 to base +12 relative to the start of the open reading frame for the rat TRPM8 gene: 5′ C*T*CGAAGGACATCTTGCCGT*G*G 3′, where * represents phosphorothioate linkages. Mis-sense was designed with 4 inversions of C/G or A/T as appropriate at residues 3, 11, 14 and 22, preserving overall G/C content. BLAST searches of both oligonucleotides indicated no significant complementarity to any known gene sequence. 14-day or 7-day osmotic minipumps (for CCI experiments or naïve electrophysiology experiments respectively—Alzet Minipump, models 2002, 2001; Charles River, UK) containing oligonucleotides (1 μg/μl in sterile saline) were connected to canulae inserted under the dura of the spinal cord to level L5/6 and produced a predicted infusion rate of 0.5 μl/h. […]

naïve rats = experiment: Intrathecal application in naïve rats, behavioural reflex testing (PWL, PWT); conditions: naïve animals, cinnamaldehyde 75 nmol, allicin 25 nmol
Procedure: as §2, §3, §4

[3] = system: saphenous nerve afferents; experiment: Saphenous nerve afferent recordings after topical application to receptive field; conditions: resiniferatoxin 1 mM; for firing frequency after drug / increase in firing frequency: topical icilin 200 μM
Source text: Antisense and mis-sense oligonucleotides were 22-mers with phosphorothioate bonds at the last two positions at 5′ and 3′ ends (MWG Biotech, Ebersberg, Germany). Antisense extended from base −10 to base +12 relative to the start of the open reading frame for the rat TRPM8 gene: 5′ C*T*CGAAGGACATCTTGCCGT*G*G 3′, where * represents phosphorothioate linkages. Mis-sense was designed with 4 inversions of C/G or A/T as appropriate at residues 3, 11, 14 and 22, preserving overall G/C content. BLAST searches of both oligonucleotides indicated no significant complementarity to any known gene sequence. 14-day or 7-day osmotic minipumps (for CCI experiments or naïve electrophysiology experiments respectively—Alzet Minipump, models 2002, 2001; Charles River, UK) containing oligonucleotides (1 μg/μl in sterile saline) were connected to canulae inserted under the dura of the spinal cord to level L5/6 and produced a predicted infusion rate of 0.5 μl/h. CCI surgery was performed at the same time as minipump implantation. Sensory tests were carried out to assess the time-course of behavioural sensitisation in animals which had also undergone a CCI injury. Icilin was applied topically rather than intrathecally so as to prevent any interference with the infusion canula. Peripheral nerve recordings and tissue harvesting were carried out after an interval of 4-5 days to allow time for protein knockdown.
Peripheral: Recordings of saphenous (sensory) nerve were made in naïve animals (n=7) to assess the effects of topical icilin on primary afferents. In addition, recordings were carried out on animals which had undergone TRPM8 antisense or mis-sense treatment beginning 4-5 days previously. Rats were anaesthetised (with 0.6 ml 25% urethane/100 g, i.p.) and the saphenous nerve was exposed and dissected from its associated vein and artery. Further dissection under liquid paraffin enabled identification of afferent preparations comprising a small number of fibres. The conduction velocity of single identified afferent fibres was determined using bipolar electrodes and the peripheral stimulus technique^[43]. Following isolation of preparations, icilin (200 μM in water with 0.2% DMF), (−)-menthol (4 mM in 25% ethanol) resiniferatoxin (1 mM in ethanol) or vehicle alone were applied to the hindlimb receptive fields and neuronal responses recorded using the Chart programme (version 3.6). Central: Recordings of spinal dorsal horn neurons were made in CCI animals, as described previously^[39]. Following halothane induction, the jugular vein and trachea were canulated and intravenous anaesthetic delivered: α-chloralose ([…], Fisher) and urethane ([…], Sigma), with small supplementary doses of α-chloralose as required throughout the experiment. Core body temperature was maintained at 37-38° C. by means of a thermostatically controlled heated blanket. The animal was placed in a stereotaxic frame, and the thoracolumbar spinal column was supported using three pairs of swan-necked clamps. A laminectomy was performed at L2-L5, and agar (2% in saline at 37° C.) was delivered over exposed cord to increase mechanical stability. Above the recording region the agar and spinal cord dura were removed and liquid paraffin poured into the pool. Extracellular recordings were made from single multireceptive neurons in laminae I-IV through the centre barrel of a seven-barrelled glass microelectrode filled with 4M NaCl (tip-diameter […], DC resistance 5-8 MΩ). The receptive fields of hair-follicle innervated neurons on the distal hindlimb were identified by an innocuous brush stimulus^[39]. Icilin (200 μM in water with 0.2% DMF) was applied peripherally to the receptive field of individual recorded neurons, and the effect on neuronal response to a rotating brush was recorded and analysed using Spike2 programme (Version 3.2, CED). […]

[4] = mis-sense-treated animals, (−)-menthol 4 mM

## N[C@@H](CCP(=O)(O)O)C(=O)O [AP-4, L-(1)-2-amino-4-phosphonobutyric acid]
[1]; intrathecal
  effect on contralateral responses: no effects contralaterally
  reversal of mechanical reflex sensitisation ipsilateral to CCI: 60.7±8.0%
  reversal of thermal reflex sensitisation ipsilateral to CCI: 60.8±6.7%

## COc1ccc(NC(=O)C2CC(C)CCC2C(C)C)cc1 (centres unmarked) [WS-12, 2-isopropyl-5-methyl-cyclohexanecarboxylic acid (4-methoxyphenyl)amide]
[2]
  analgesia, thermal hyperalgesia (Hargreaves' test): causes analgesia

## C=CCSSCC=C [diallyl disulphide]
naïve rats; diallyl disulphide
  reduction in PWL: 25.9±7.0%
naïve rats; diallyl disulphide 50 mmol
  reduction in PWT: 28.5±6.2%

## N.N.N.N.N.N.N.N.N.N.N.N.N.N.[Cl-].[Cl-].[Cl-].[Cl-].[Cl-].[Cl-].[O-2].[O-2].[Ru+3].[Ru+3].[Ru+4] [Ruthenium Red]
[1]; Ruthenium Red 0.25 nmol with icilin 10 nmol
  effect on analgesic effect of intrathecally-injected icilin: unaffected
[1]; co-injection of Ruthenium Red 0.25 nmol with cinnamaldehyde 75 nmol, intrathecal
  effect on sensitising effects of cinnamaldehyde: prevented

## COc1ccccc1N1CC=C(c2cccc([N+](=O)[O-])c2)NC1=O [methoxy-icilin, 1-(2′-methoxyphenyl)-4-(3″-nitrophenyl)-1,2,3,6-tetrahydropyrimidin-2-one]
[2]
  analgesia, thermal hyperalgesia (Hargreaves' test): causes analgesia

## C=C(C)[C@]12C[C@@H](C)[C@@]34O[C@](Cc5ccccc5)(O[C@@H]1[C@@H]3C=C(COC(=O)Cc1ccc(O)c(OC)c1)C[C@]1(O)C(=O)C(C)=C[C@@H]41)O2 [resiniferatoxin]
[3]; antisense-treated animals
  afferents activated out of 28 recorded: 16
  increase in firing frequency: 6 fold
[3]; antisense-treated animals, (−)-menthol 4 mM
  firing frequency after drug: 25.9±1.8 Hz
[3]; [4]
  firing frequency after drug: 24.8±3.1 Hz
  increase in firing frequency: 5 fold

## C=CCN1CC[C@]23c4c5ccc(O)c4O[C@H]2C(=O)CC[C@@]3(O)[C@H]1C5 [naloxone]
[1]; naloxone 25 nmol intrathecal co-administration with icilin
  effect on icilin analgesia: had no effect

## N[C@]1(C(=O)O)C[C@H](C(=O)O)[C@H](C(=O)O)C1 [ACPT-III, (1R,3R,4S)-1-aminocyclopentane-1,3,4-tricarboxylic acid]
[1]; intrathecal
  effect on contralateral responses: no effects contralaterally
  reversal of mechanical reflex sensitisation ipsilateral to CCI: 65.7±11.4%
  reversal of thermal reflex sensitisation ipsilateral to CCI: 83.6±6.3%

## CC(C)[C@H]1CC[C@@H](C)C[C@@H]1O [isomenthol, 1S,2R,5R-menthol]
[2]
  reversal of sensitised responses: produced reversal of sensitised responses

## N[C@@]1(C(=O)O)CN[C@@H](C(=O)O)C1 [2R,4R-APDC, (2R, 4R)-4-aminopyrrolidine-2,4-dicarboxylate]
[1]; intrathecal
  effect on contralateral responses: no effect on contralateral responses
  reversal of mechanical reflex sensitisation ipsilateral to CCI: 56.0±10.9%
  reversal of thermal reflex sensitisation ipsilateral to CCI: 72.1±6.4%

## CC1CC[C@H](C(C)C)[C@@H](O)C1 (single isomer, unassigned; (+)) [(+)-menthol]
[2]
  reversal of sensitised responses: produced reversal of sensitised responses

From patent US20100137344A1, “INDUCTION OF ANALGESIA IN NEUROPATHIC PAIN” (University Court of the University of Edinburgh, priority 2006, published 2010)
